In US20040248963A1, “Prodrugs of excitatory amino acids” (priority 2001, published 2004) one finds melting point data, which are given here for 15 compounds.

What is called melting point is the temperature, or range, at which the solid turns liquid.

`Cl.N[C@@]1(C(=O)OCOC(=O)c2ccc3ccccc3c2)CC[C@H]2[C@H](C(=O)O)[C@H]21` showed a melting point of 184 to 185 °C. Turning to `CC(C)(C)C(=O)OCOC(=O)[C@H]1[C@@H]2CC[C@@](N)(C(=O)O)[C@@H]21.Cl`, the melting point was 258 °C (dec.). Next, `Cl.N[C@@]1(C(=O)O)CC[C@H]2[C@H](C(=O)OCOC(=O)c3ccccc3)[C@H]21`: 230 °C (dec.); `CC(C)OC(=O)OCOC(=O)[C@H]1[C@@H]2CC[C@@](N)(C(=O)OCOC(=O)OC(C)C)[C@@H]21.Cl`: 52 °C; `CC(C)C(=O)OCOC(=O)[C@H]1[C@@H]2CC[C@@](N)(C(=O)OCOC(=O)C(C)C)[C@@H]21.Cl`: 224 to 226 °C. `Cl.N[C@@]1(C(=O)OCOC(=O)c2ccc3ccccc3c2)CC[C@H]2[C@H](C(=O)OCOC(=O)c3ccc4ccccc4c3)[C@H]21` displayed a melting point of 125 to 127 °C. In turn, `Cl.N[C@@]1(C(=O)OCOC(=O)c2cccc3ccccc23)CC[C@H]2[C@H](C(=O)OCOC(=O)c3cccc4ccccc34)[C@H]21` returned a melting point of 92 to 94 °C. `CC(C)OC(=O)OCOC(=O)[C@]1(N)CC[C@H]2[C@H](C(=O)O)[C@H]21.Cl` [Example 14, (1S,2S,5R,6S)-2-Amino-bicyclo[3.1.0]hexane-2,6-dicarboxylic acid 2-isopropyloxycarbonyloxymethyl ester hydrochloride]: the melting point was in the range of 59 to 60 °C. `Cl.N[C@@]1(C(=O)OCOC(=O)c2cccc3ccccc23)CC[C@H]2[C@H](C(=O)O)[C@H]21` [Example 17, (1S,2S,5R,6S)-2-amino-bicyclo[3.1.0]hexane-2,6-dicarboxylic acid 2-(naphthalene-1′-carbonyloxymethyl) ester hydrochloride]: the melting point was in the range of 212 to 213 °C. Next, `CC(C)(C)C(=O)OCOC(=O)[C@H]1[C@@H]2CC[C@@](N)(C(=O)O)[C@@H]21` [Example 21, (1S,2S,5R,6S)-2-Amino-bicyclo[3.1.0]hexane-2,6-dicarboxylic acid 6-tert-butylcarbonyloxymethyl ester]: 205 to 206 °C. On to `CC(C)OC(=O)OCOC(=O)[C@H]1[C@@H]2CC[C@@](N)(C(=O)O)[C@@H]21` [Example 23, (1S,2S,5R,6S)-2-Amino-bicyclo[3.1.0]hexane-2,6-dicarboxylic acid 6-isopropyloxycarbonyloxymethyl ester], for which the melting point is 196 to 197 °C. As for `CCCC(=O)OCOC(=O)[C@H]1[C@@H]2CC[C@@](N)(C(=O)O)[C@@H]21` [Example 24, (1S,2S,5R,6S)-2-amino-bicyclo[3.1.0]hexane-2,6-dicarboxylic acid 6-n-butyryloxymethyl ester], the figure is 199 to 200 °C; as for `COC(=O)OCOC(=O)[C@H]1[C@@H]2CC[C@@](N)(C(=O)O)[C@@H]21` [Example 25, (1S,2S,5R,6S)-2-amino-bicyclo[3.1.0]hexane-2,6-dicarboxylic acid 6-methoxycarbonyloxymethyl ester], 214 to 215 °C; as for `Cc1oc(=O)oc1COC(=O)[C@H]1[C@@H]2CC[C@@](N)(C(=O)O)[C@@H]21` [Example 26, (1S,2S,5R,6S)-2-amino-bicyclo[3.1.0]hexane-2,6-dicarboxylic acid 6-(5′-methyl-2′-oxo-[1′,3′]dioxolen-4′-yl)methyl ester], 180 °C (dec.). As for `Cl.N[C@@]1(C(=O)OCOC(=O)c2ccccc2)CC[C@H]2[C@H](C(=O)OCOC(=O)c3ccccc3)[C@H]21` [Example 43, (1S,2S,5R,6S)-2-Amino-bicyclo[3.1.0]hexane-2,6-dicarboxylic acid, 2,6-dibenzoyloxymethyl ester hydrochloride], the figure is 73 °C.
